This is an account of results in article PMC8355587, “The Potential of Lisosan G as a Possible Treatment for Glaucoma” (Frontiers in Pharmacology, 2021).

Where two headings read alike, the source gives them in different places.

Data set [1] in a line: UHPLC-MS of LG components in the retina after LG gavage. It is filed as in vivo, mouse. To be noted: for retinal levels 24 h after LG administration: longest time period investigated; for AUC 0-24h in the retina / C max in the retina: *mg of retinal tissue (wet weight), n = 3; for Tmax: retina, 4.15 g LG/Kg of body weight. Here is the method:
For the analysis of different LG components reaching the retina after LG ingestion, a total of eighteen 6-mo-old D2 mice received an oral administration of LG solution by gavage. The retinas of three mice were dissected and quickly frozen in liquid nitrogen after 0 or 30 min and after 1, 2, 6, or 24 h. The retinas were stored at −80°C until used for mass spectrometry.
Assuming an average mouse body weight of 20 g, this dose corresponded to 4.15 g LG/Kg of body weight (human equivalent dose, 340 mg LG/Kg of body weight).
The main components of LG were determined in the LG powder (1 mg sample) using the same procedure as described below for the retinas. The most abundant were gallic acid, 4-hydroxybenzoic acid, quercetin, and nicotinamide (Table 2), therefore these metabolites were chosen as the LG components to be determined in the retina. To this aim, LG was administered to the mice by gavage and the retinas were dissected at different time points. The two retinas from each mouse were pooled together and they were resuspended in 0.2 ml of ice cold ultra-pure water (18 MΏ-cm) to lyse the cells. Three independent samples were analyzed for each time point. The tubes were plunged into dry ice or in a circulating bath at −25°C for 0.5 min and then into a water bath at 37°C for 0.5 min. Subsequently, 0.6 ml of −20°C methanol and then 0.4 ml of −20°C chloroform were added to each tube. The tubes were mixed every 5 min for 30 min, then they were centrifuged at 1000 × g for 1 min at 4°C, before being transferred to −20°C for 2–8 h. After centrifugation at 15,000 × g for 10 min at 4°C, the supernatants were collected and dried. Finally, the dried samples were resuspended in 0.1 ml of water and transferred to glass autosampler vials for LC-MS analysis. The supernatants were injected (20 μl) into a UHPLC system (Ultimate 3000; ThermoFisher Scientific, Waltham, MA, United States) and run in negative ion mode for determination of 4-hydroxy benzoic acid and in positive ion mode for the other. A ReproSil C18 column (2.0 mm × 150 mm, 2.5 μm; Dr Maisch, Ammerbuch-Entringen, Germany) was used for metabolite separation. […] For positive ion mode (+) MS analyses, a 0–100% linear gradient of solvent A (ddH2O, 0.1% formic acid) to B (acetonitrile, 0.1% formic acid) was employed over 20 min returning to 100% A in 3 min. For negative ion mode chromatographic separations A 0–100% linear gradient of solvent A (double-distilled 18 MΏ-cm water, […]) to B (100% acetonitrile, 10 mm ammonium acetate) was employed over 20 min, returning to 100% A in 3 min and a […] solvent A hold. The UHPLC system was coupled online with a mass spectrometer Q Exactive (ThermoFisher) scanning in full MS mode (2 μ scans) at 70,000 resolution in the 60–1000 m/z range. Data files were processed by MAVEN. 8.1 (http://genomics-pubs.princeton.edu/mzroll/) upon conversion of raw files into mzXML format through MassMatrix (Yellow Springs, OH, United States). Standard curves were obtained with several calibration points (2–0.00002 mg) of gallic acid, 4-hydroxybenzoic acid, quercetin, and nicotinamide analytical standards (Sigma Aldrich, St Louis, MO, United States).

Details of data set [2]: method as in printed. The settings on record: general statement, no test and ref not given; cited from earlier work.
Setting [3] is: D2 mice, LG by gavage 1 ml of 83 mg LG/ml (4.15 g LG/Kg).

In the case of `O=C(O)c1cc(O)c(O)c(O)c1` [Gallic acid, gallic acid], the “T max in the retina” value in data set [1] (D2, mouse, in vivo, po) stood at 30 min. The “retinal levels 24 h after LG administration” value in data set [1] is recorded as “still in the range of its maximum concentration”.

For `O=C(O)c1ccc(O)cc1` [Hydroxy benzoic acid, 4-hydroxybenzoic acid], in data set [1] (setting [3]), the “T max in the retina” value stood at 30 min, the “AUC 0-24h in the retina” value was found to be 958.500 ± 291.500 ng·h/mg and the “C max in the retina” value is 444.250 ± 109.713 ng/mg. Besides, the solubility in water result in data set [2] was “only slightly soluble in water”.

In the case of `NC(=O)c1cccnc1` [Nicotinamide, nicotinamide], the Tmax in data set [1] (D2, mouse, po, after LG administration by gavage, read-out: time of maximum concentration in the retina) turned out to be 360 min. In data set [1] (setting [3]), the “AUC 0-24h in the retina” value worked out at 106.900 ± 52.210 ng·h/mg and the “C max in the retina” value worked out at 8.040 ± 1.274 ng/mg. Moreover, the “retinal levels 24 h after LG administration” value in data set [1] is reported as “detectable, although low”.

On to `O=c1c(O)c(-c2ccc(O)c(O)c2)oc2cc(O)cc(O)c12` [Quercetin, quercetin], for which, in data set [1] (setting [3]), the “AUC 0-24h in the retina” value came to 0.263 ± 0.049 ng·h/mg and the “C max in the retina” value is 0.061 ± 0.016 ng/mg. Moreover, the “time within which retinal levels decreased” value in data set [1] (after LG administration by gavage) is given as at most 2 h. The Tmax in data set [1] (mouse, po, D2 mice, LG by gavage 1 ml of 83 mg LG/ml (4.15 g LG/Kg), read-out: T max in the retina) was 30 min.
